The values below come from US7960131B2, “Functional genomic pore assay for mixed cell populations” (Wisconsin Alumni Research Foundation, priority 2003, dated 2011).

One assay deals with T1, P2X7-Q460R (Homo sapiens, UniProt Q99572, Q460R).
T1 construct: expressed in transfected cells
T1 sequence (Q99572 1-595 Q460R): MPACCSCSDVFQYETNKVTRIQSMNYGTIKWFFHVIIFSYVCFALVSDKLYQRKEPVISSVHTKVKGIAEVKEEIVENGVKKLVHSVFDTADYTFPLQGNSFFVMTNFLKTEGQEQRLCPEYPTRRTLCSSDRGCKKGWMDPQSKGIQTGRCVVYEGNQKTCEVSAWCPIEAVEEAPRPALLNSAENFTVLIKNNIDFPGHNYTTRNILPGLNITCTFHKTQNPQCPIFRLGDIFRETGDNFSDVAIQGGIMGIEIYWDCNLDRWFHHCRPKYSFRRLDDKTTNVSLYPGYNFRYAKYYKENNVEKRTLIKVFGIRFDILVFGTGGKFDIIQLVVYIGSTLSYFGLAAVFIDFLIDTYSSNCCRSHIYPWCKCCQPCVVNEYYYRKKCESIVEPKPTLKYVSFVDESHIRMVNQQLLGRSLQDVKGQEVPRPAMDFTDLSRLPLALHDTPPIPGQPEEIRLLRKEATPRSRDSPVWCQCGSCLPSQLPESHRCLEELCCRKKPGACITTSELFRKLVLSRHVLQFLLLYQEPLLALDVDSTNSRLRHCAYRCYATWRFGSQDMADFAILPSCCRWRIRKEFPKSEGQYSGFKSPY
Kind of assay: YO-PRO-1 uptake fluorimetric plate assay in transfected HEK 293 cells, P2X7-Q460R. The assay is classed as cell-based. From the text: Recombinant Expression and Functional Characterization of Variant P2RX7 Alleles. A pcDNA3 expression vector containing a cloned human P2RX7 cDNA associated with normal pore activity was subjected to point mutagenesis using the Quick Change Kit (Stratagene Inc., city, state) to create the variants P2X7-G150R, P2X7-Q460R, and P2X7-E496A. HEK 293 cells were transfected by the Superfect liposomal method and stable populations were selected by G418 resistance. Expression of P2X7 mRNA and protein in unstimulated transfected HEK cell cultures was verified by RT-PCR and immunoblotting as previously described.
YO-PRO-1 fluorescence was measured by a Synergy-HT fluorescent plate reader (Biotek, city, state) using X±Y nm excitation and A±B emission filters.

A further assay concerns P2X7 receptor. Kind of assay: Bead-standardized whole blood/PBMC monocyte P2X7 pore assay with PI exclusion of nonviable cells. The assay is classed as cell-based, human. Conditions: for BzATP Stimulated YO-PRO-1 measurement, Mean: viable monocytes. The protocol:
PBMC Isolation. Six mLs of citrate-treated blood was underlayed with three mLs of Lymphoprep (Axis-Sheild, Oslo, Norway) and centrifuged at 800 g for 30 minutes at room temperature. The cellular interface was collected and washed twice with sterile phosphate-buffered saline (PBS). Cells were counted and assayed for pore activity as described below.
Sample Preparation. Although all leukocytes studied to date express P2X7, monocytes were selected as the cell population to screen because of the greater sensitivity of pore function noted between individuals participating in a small study with forty-five healthy subjects (5, 34). Staining procedures were as previously described (10, 14, 34). Briefly, aliquots of citrated whole blood ([…]) were washed twice in HEPES-buffered saline (HBS; 130 mM NaCl, 5 mM KCl, 20 mM HEPES pH 7.4, 0.1% bovine serum albumin, 10 mM glucose; components purchased at Sigma, St. Louis, Mo.) and resuspended in the original 500 L volume. A 10 μL aliquot of anti-human CD14 antibody conjugated to phycoerythrin (CD14-PE, 50 μg/mL; BD Biosciences, San Diego, Calif.) was added to each sample and incubated at room temperature for 20 min. The cells were washed twice in a potassium glutamate buffer (130 mM potassium glutamate, 5 mM KCl, 20 mM HEPES pH 7.4, 0.1% bovine serum albumin, 10 mM glucose; components from Sigma) to maximize the differences between high and low pore activities (17).
Samples were adjusted to 10 mM magnesium chloride, washed in HEPES-buffered saline and diluted to a volume of 2.5 mL in HBS. These latter steps have been previously shown to close the pore rapidly allowing for kinetic precision in a large clinical study (10, 34). For the methods described here, including all the samples from the MIA trial (Table 3), propidium iodide (PI; 5 μg/mL) was added to each sample and incubated for 15 min prior to sample acquisition using flow cytometry as described below.
Determination of Instrument Settings and Calculation of Spectral Overlap. All instruments in the facility are cleaned daily and assessed for laser alignment, photomultiplier tube (PMT) performance, linearity and noise. All fluorochromes were excited with a 488 nm laser and the following filter sets were used in all flow cytometers: a BP 530/30 for YO-PRO-1, a BP 585/42 for PE and a LP 670 for propidium iodide. Experiments were performed on FACScan, FACSCalibur, and LSR II flow cytometers (Becton Dickinson, San Jose, Calif.) in conjunction with the CellQuest, CellQuestPro, FACSDiva acquisition and analysis software programs (v. 3.3, v. 4.0, and v. 5.0.1, respectively; Becton Dickinson).
Previously, pore activity was measured on a FACScan flow cytometer (Becton Dickinson, San Jose, Calif.) using recalled instrument settings: YO-PRO-1 at 410 mV, PE at 412 mV, acquisition threshold for PE at 324 mV, and PE-32.6% YO-PRO-1 compensation (10). To facilitate comparisons across instrument platforms and among laboratories, we used these recalled settings as a template to adapt desired PMT voltages for SpheroTM Rainbow fluorescent particles (mid-range 3.0-3.4 μm; Sperotech, Lake Forest Ill.), corresponding data shown in FIG. 15. Rainbow particles have a very stable fluorescence and can be stored and used over a long period of time, allowing the intensities of these particles in each fluorescent detector to serve as target values for determining the voltages applied to each PMT for all of the cytometers used.
The same target values were used for the analog instruments, FACScan and FACSCalibur (BD Biosciences, San Jose, Calif.) because these instruments process fluorescence signals in the same way and the intensities determined were very close (data not shown). The LSR II (BD Biosciences, San Jose, Calif.) uses digital processing and fluorescence is collected and sampled differently so a second set of target values using these same samples was determined for each color detector on this cytometer. […]

For the substance “2′-3′-O-(4-benzoylbenzoyl)-adenosine 5′-triphosphate [Bz-ATP]”, the EC50 at P2X7-Q460R was about 30 µM. For the same substance, the “increase in YO-PRO-1 fluorescence over baseline” value at P2X7-Q460R is 8 fold. In addition, the “BzATP Stimulated median YO-PRO-1 fluorescence” value in the assay with P2X7 receptor (Ficoll prep PBMC, A, Bead-Adjusted compensation) was 292; with P2X7 receptor (Whole blood, A, Bead-Adjusted compensation), 276; with P2X7 receptor (Whole blood, B, Uncompensated) it was 30.7; in the assay on P2X7 receptor (Whole blood, B, YO-PRO-PE Set at 2%), 27.4; with P2X7 receptor (Whole blood, C, Uncompensated), 1071; in the assay on P2X7 receptor (Whole blood, C, YO-PRO-PE Set at 2%), 1067. Also, the “BzATP Stimulated YO-PRO-1 measurement, Mean” value in the assay on P2X7 receptor (Low Responder donor, Bead Adjusted PMT method) is on record as 30.1; in the assay on P2X7 receptor (Low Responder donor, Recalled PMT method) it was 30.0; with P2X7 receptor (Normal Responder donor, Bead Adjusted PMT method) it was 1019.0; with P2X7 receptor (Normal Responder donor, Recalled PMT method), 983.0.
